Results taken from patent US8614339B2, “Dimeric derivatives of artemisinin and application in anti-cancer therapy” (Pierre Fabre Medicament, priority 2008, dated 2013).

What was measured:
A549 cell line (lung) = test: Cytotoxic activity: inhibition of cell proliferation, ATPLite luminescence of residual ATP after 72 hours; assay type: cell-based; settings: A549 human lung tumour cell line, 72 hours of incubation, read-out: IC50 (expressed in nM) A549
Description: (§1) The cytotoxic activity of the compounds of the invention was evaluated by measuring inhibition of cell proliferation of human tumour cell lines, such as the A549 cell line (lung) and the Namalwa cell line (lymphoma). This activity is expressed by IC50, the concentration of the product tested able to inhibit cell proliferation by 50%. The method employed is measurement by luminescence of residual ATP after 72 hours of incubation using the ATPLite® kit sold by Perkin Elmer, as described in the following publication: “Measurement of cytotoxicity by ATP-based luminescence assay in primary cell cultures and cell lines.” I. A. Cree, P. E. Andreotti, Toxicology in Vitro, 11, 553-6, (1997).
(§2) As an example, the cytotoxic properties of a few of the compounds of the invention evaluated on A549 and Namalwa cell lines are presented in the following table: […]

[1] = tested on: Namalwa cell line (lymphoma); test: as above; assay type: cell-based; settings: Namalwa human lymphoma cell line, 72 hours of incubation, read-out: IC50 (expressed in nM) Namalwa
Description: as §1, §2

| SMILES | IC50 (A549 cell line (lung)) [nM] | IC50 [1] [nM] |
| --- | --- | --- |
| C[C@@H]1CC[C@H]2[C@@H](C)[C@](OCCCCCOCC3=C(C(F)(F)F)O[C@@H]4O[C@@]5(C)CC[C@H]6[C@H](C)CC[C@@H]3[C@@]46OO5)(C(F)(F)F)O[C@@H]3O[C@@]4(C)CC[C@@H]1[C@]32OO4 [Compound 16] | 19 | 42 |
| C[C@@H]1CC[C@H]2C(COCc3cccc(CO[C@@]4(C(F)(F)F)O[C@@H]5OC6(C)CCC7[C@H](C)CC[C@@H]([C@H]4C)[C@]75OO6)n3)=C(C(F)(F)F)O[C@@H]3OC4(C)CCC1[C@]32OO4 (stereo partly drawn) [Compound 4] | 27 | 19 |
| C[C@@H]1CC[C@H]2C(COC/C=C/CO[C@@]3(C(F)(F)F)O[C@@H]4OC5(C)CCC6[C@H](C)CC[C@@H]([C@H]3C)[C@]64OO5)=C(C(F)(F)F)O[C@@H]3O[C@@]4(C)CCC1[C@]32OO4 (stereo partly drawn) [Compound 8] | 27 | 13 |
| C[C@@H]1CC[C@H]2C(COCCCO[C@@]3(C(F)(F)F)O[C@@H]4OC5(C)CCC6[C@H](C)CC[C@@H]([C@H]3C)[C@]64OO5)=C(C(F)(F)F)O[C@@H]3OC4(C)CCC1[C@]32OO4 (stereo partly drawn) [Compound 1] | 5.2 | 6.8 |
| C[C@@H]1CC[C@H]2C(Cn3nncc3CO[C@@]3(C(F)(F)F)O[C@@H]4OC5(C)CCC6[C@H](C)CC[C@@H]([C@H]3C)[C@]64OO5)=C(C(F)(F)F)O[C@@H]3OC4(C)CCC1[C@]32OO4 (stereo partly drawn) [Compound 7] | 45 | 30 |
| C[C@@H]1CC[C@H]2C(CNCCO[C@@]3(C(F)(F)F)O[C@@H]4OC5(C)CCC6[C@H](C)CC[C@@H]([C@H]3C)[C@]64OO5)=C(C(F)(F)F)O[C@@H]3O[C@@]4(C)CCC1[C@]32OO4 (stereo partly drawn) [Compound 10] | 27 | 19 |
| C[C@@H]1CC[C@H]2C(COCCO[C@@]3(C(F)(F)F)O[C@@H]4OC5(C)CCC6[C@H](C)CC[C@@H]([C@H]3C)[C@]64OO5)=C(C(F)(F)F)O[C@@H]3OC4(C)CCC1[C@]32OO4 (stereo partly drawn) [Compound 2] | 25 | 27 |
| C[C@@H]1CC[C@H]2C(COCCCCO[C@@]3(C(F)(F)F)O[C@@H]4OC5(C)CCC6[C@H](C)CC[C@@H]([C@H]3C)[C@]64OO5)=C(C(F)(F)F)O[C@@H]3OC4(C)CCC1[C@]32OO4 (stereo partly drawn) [Compound 3] | 6.7 | 5.5 |
| C[C@@H]1CC[C@H]2[C@@H](C)[C@](OCCCCCN(C)CC3=C(C(F)(F)F)O[C@@H]4O[C@@]5(C)CC[C@H]6[C@H](C)CC[C@@H]3[C@@]46OO5)(C(F)(F)F)O[C@@H]3O[C@@]4(C)CC[C@@H]1[C@]32OO4 [Compound 22] | 46 | 83 |
